{"source": "patent EP4043466B1", "about": "“PRC2 INHIBITORS” (Mirati Therapeutics, Inc., priority 2018, dated 2019)", "key": {"[1]": {"tested_on": "PRC2-mediated histone H3 methylation", "test": "Tri-Methyl Histone H3 (Lys 27) Sandwich ELISA in Pfeiffer cells: inhibition of PRC2-mediated histone H3 methylation", "format": "cell-based, human", "details": "Homo sapiens; Inhibition of EZH2-mediated histone H3 trimethylation; Pfeiffer cells (EZH2 A677G), 96 hours incubation", "in_short": "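Pfeiffer DLBCL cells (EZH2 A677G mutant) treated with 3-fold serial dilutions, 1µM to 0.15 nM final, for 96 hours at 37°C. Acid (0.4M HCl) histone extracts, neutralized, assayed by H3K27me3 sandwich ELISA with HRP/TMB read at 450 nm.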"}, "Karpas 422 cells": {"tested_on": "Karpas 422 cells", "test": "Karpas 422 cell viability, CTG (Cell Titre Glo) assay", "format": "cell-based, human", "details": "Homo sapiens; Inhibition of proliferation of Karpas 422 cells (EZH2 Y641N); viability measured Day 4, Day 7 or Day 11, time point of the tabulated values not stated", "in_short": "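Karpas 422 cells (EZH2 Y641N, DLBCL) plated at 1000 cells/well in RPMI with 20% FBS, exposed to compound 10µM down to 1.5nM in 3-fold steps at 37 °C. Viability by CellTiter-Glo on Days 4, 7 and 11; Day 11 plates re-fed with fresh medium and compound on Day 7. IC50 per time point.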"}, "[2]": {"molecular_target": "purified human, His-tagged PRC2 complex (Homo sapiens, UniProt O75530+Q15910)", "sequence (Q15910 whole entry)": "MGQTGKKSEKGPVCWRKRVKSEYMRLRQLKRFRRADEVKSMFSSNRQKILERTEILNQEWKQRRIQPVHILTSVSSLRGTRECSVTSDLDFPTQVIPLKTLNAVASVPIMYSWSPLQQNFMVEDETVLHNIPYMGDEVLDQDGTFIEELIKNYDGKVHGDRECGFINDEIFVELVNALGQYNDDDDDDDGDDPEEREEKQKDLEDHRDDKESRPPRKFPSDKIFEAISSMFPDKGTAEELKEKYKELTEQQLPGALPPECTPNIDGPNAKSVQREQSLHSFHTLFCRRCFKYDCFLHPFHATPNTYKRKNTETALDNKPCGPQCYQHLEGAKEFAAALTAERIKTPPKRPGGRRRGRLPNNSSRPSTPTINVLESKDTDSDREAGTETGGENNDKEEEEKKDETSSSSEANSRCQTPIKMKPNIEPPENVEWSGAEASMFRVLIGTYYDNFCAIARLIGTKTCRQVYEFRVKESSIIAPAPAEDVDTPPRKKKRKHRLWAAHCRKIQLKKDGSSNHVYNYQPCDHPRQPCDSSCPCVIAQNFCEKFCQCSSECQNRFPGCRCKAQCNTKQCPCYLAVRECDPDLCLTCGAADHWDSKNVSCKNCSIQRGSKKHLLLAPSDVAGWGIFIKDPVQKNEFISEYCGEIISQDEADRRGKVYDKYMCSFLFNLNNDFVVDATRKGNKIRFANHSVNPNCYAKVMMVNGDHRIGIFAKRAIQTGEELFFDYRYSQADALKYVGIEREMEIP", "sequence (O75530 whole entry)": "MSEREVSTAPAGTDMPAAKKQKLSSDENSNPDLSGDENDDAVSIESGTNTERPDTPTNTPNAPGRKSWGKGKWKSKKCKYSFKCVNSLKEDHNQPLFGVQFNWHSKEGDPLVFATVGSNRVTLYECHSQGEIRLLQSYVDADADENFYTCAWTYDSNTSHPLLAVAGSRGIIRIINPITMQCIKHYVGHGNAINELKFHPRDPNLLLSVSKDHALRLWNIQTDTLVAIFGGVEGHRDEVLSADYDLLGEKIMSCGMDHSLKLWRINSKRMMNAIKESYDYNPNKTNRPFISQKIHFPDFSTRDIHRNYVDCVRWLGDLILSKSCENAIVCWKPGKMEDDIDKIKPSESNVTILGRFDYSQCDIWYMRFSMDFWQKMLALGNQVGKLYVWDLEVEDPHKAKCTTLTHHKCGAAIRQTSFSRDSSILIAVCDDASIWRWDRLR", "sequence (Q15022 whole entry partner)": "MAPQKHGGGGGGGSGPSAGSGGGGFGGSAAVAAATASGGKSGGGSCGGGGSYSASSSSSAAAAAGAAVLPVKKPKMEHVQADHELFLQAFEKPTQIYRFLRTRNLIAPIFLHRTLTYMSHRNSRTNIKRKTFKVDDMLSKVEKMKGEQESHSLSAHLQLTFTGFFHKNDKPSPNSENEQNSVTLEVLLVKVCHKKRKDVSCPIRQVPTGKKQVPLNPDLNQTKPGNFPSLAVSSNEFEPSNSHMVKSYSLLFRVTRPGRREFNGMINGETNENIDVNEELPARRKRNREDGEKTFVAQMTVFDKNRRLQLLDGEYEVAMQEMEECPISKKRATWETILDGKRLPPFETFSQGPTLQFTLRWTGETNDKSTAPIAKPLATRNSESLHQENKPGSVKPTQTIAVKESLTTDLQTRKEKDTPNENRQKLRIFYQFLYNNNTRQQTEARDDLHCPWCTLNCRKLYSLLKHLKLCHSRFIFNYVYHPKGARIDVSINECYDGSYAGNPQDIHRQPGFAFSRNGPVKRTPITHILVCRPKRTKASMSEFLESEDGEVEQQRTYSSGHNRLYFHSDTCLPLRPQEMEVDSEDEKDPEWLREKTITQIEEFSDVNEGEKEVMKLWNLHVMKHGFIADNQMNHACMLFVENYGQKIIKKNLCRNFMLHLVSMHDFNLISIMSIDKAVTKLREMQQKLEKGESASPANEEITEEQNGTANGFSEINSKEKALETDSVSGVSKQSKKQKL", "sequence (Q6ZN18 whole entry partner)": "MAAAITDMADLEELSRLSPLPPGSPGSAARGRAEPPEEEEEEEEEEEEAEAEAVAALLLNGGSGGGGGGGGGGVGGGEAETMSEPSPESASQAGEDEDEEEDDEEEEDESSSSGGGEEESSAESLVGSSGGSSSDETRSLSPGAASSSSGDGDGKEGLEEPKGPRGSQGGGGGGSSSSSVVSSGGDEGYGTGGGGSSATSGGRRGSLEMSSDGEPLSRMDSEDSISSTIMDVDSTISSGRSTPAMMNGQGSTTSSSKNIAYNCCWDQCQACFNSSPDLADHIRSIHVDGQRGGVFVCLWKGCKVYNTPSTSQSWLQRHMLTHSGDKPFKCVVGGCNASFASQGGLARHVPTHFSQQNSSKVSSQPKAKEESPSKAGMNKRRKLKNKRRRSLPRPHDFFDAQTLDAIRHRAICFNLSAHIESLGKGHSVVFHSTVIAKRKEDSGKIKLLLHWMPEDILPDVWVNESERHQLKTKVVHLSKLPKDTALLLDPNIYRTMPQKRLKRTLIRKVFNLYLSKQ", "sequence (Q09028 whole entry partner)": "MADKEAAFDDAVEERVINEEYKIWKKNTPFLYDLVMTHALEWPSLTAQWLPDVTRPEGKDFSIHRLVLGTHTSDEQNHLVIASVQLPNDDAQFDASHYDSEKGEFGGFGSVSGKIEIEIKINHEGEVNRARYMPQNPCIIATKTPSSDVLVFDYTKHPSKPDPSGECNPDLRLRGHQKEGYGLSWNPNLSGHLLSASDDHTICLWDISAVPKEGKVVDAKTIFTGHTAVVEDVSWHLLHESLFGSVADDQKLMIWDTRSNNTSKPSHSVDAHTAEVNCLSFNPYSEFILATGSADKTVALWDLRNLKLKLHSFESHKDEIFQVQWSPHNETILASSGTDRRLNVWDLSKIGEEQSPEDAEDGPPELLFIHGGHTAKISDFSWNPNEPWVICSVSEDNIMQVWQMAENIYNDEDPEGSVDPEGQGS", "test": "Hot Spot HMT assay: inhibition of PRC2 enzymatic activity (transfer of tritiated methyl from SAM to core histone, filter binding)", "format": "biochemical", "details": "Inhibition of PRC2-mediated enzymatic activity; 10 nM PRC2 complex, 0.05 mg/ml core histone H3, 1 uM 3H-SAM, 1 hr at 30°C", "in_short": "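Five-subunit complex (His-EZH2, Flag-EED, His-SUZ12, His-AEBP2, His-RbAp48) at 10 nM with 0.05 mg/ml core histone H3, pH 8 Tris buffer, 1% DMSO; 20 min compound pre-incubation at 30°C. Started with 1 uM [3H]-SAM, 1 hr at 30°C; tritiated H3 counted by scintillation. Compounds diluted from 1.0 µM top concentration.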"}}, "note": "pIC50: −log10 of the molar value."}
{"smiles": "N#Cc1cn2c(NCc3c(F)ccc4c3CCO4)ncc(-c3cnccn3)c2n1", "note": "[Example 68, 5-(((5-fluoro-2,3-dihydrobenzofuran-4-yl)methyl)amino)-8-(pyrazin-2-yl)imidazo[1,2-c]pyrimidine-2-carbonitrile]", "values": [{"measurement": "pIC50", "setting": "[1]", "result": "6.30 to 7.00"}, {"measurement": "pIC50", "setting": "Karpas 422 cells", "result": "≥ 6.60"}, {"measurement": "pIC50", "setting": "[2]", "result": "> 7.00"}]}
{"smiles": "COC(=O)c1ccc(-c2cnc(NCc3c(F)ccc4c3CCO4)n3cc(C#N)nc23)cn1", "note": "[Example 166, methyl 5-(2-cyano-5-(((5-fluoro-2,3-dihydrobenzofuran-4-yl)methyl)amino)imidazo[1,2-c]pyrimidin-8-yl)picolinate]", "values": [{"measurement": "pIC50", "setting": "[1]", "result": "< 6.30"}, {"measurement": "pIC50", "setting": "Karpas 422 cells", "result": "6.30 to 6.60"}, {"measurement": "pIC50", "setting": "[2]", "result": "> 7.00"}]}
{"smiles": "CNC(=O)c1cc(-c2cnc(NCc3c(F)ccc4c3CCO4)n3cc(C#N)nc23)n(C)n1", "note": "[Example 208, 5-(2-cyano-5-(((5-fluoro-2,3-dihydrobenzofuran-4-yl)methyl)amino)imidazo[1,2-c]pyrimidin-8-yl)-N, 1-dimethyl-1H-pyrazole-3-carboxamide]", "values": [{"measurement": "pIC50", "setting": "[1]", "result": "6.30 to 7.00"}, {"measurement": "pIC50", "setting": "Karpas 422 cells", "result": "≥ 6.60"}, {"measurement": "pIC50", "setting": "[2]", "result": "> 7.00"}]}
{"smiles": "N#Cc1cn2c(NCc3c(F)ccc4c3CCO4)ncc(-c3ccc(C4CCCO4)cc3)c2n1", "note": "(stereo not drawn) [Example 162, 5-(((5-fluoro-2,3-dihydrobenzofuran-4-yl)methyl)amino)-8-(4-(tetrahydrofuran-2-yl)phenyl)imidazo[1,2-c]pyrimidine-2-carbonitrile]", "values": [{"measurement": "pIC50", "setting": "[1]", "result": "6.30 to 7.00"}, {"measurement": "pIC50", "setting": "Karpas 422 cells", "result": "6.30 to 6.60"}, {"measurement": "pIC50", "setting": "[2]", "result": "> 7.00"}]}
{"smiles": "Cc1ncccc1-c1cnc(NCc2c(F)ccc3c2CCO3)n2cc(C(N)=O)nc12", "note": "[Example 137, 5-(((5-fluoro-2,3-dihydrobenzofuran-4-yl)methyl)amino)-8-(2-methylpyridin-3-yl)imidazo[1,2-c]pyrimidine-2-carboxamide]", "values": [{"measurement": "pIC50", "setting": "[1]", "result": "6.30 to 7.00"}, {"measurement": "pIC50", "setting": "Karpas 422 cells", "result": "≥ 6.60"}, {"measurement": "pIC50", "setting": "[2]", "result": "> 7.00"}]}
{"smiles": "CN(C)C(=O)c1cc(-c2cnc(NCc3c(F)ccc4c3CCO4)n3cc(C#N)nc23)n(C)n1", "note": "[Example 170, 5-(2-cyano-5-(((5-fluoro-2,3-dihydrobenzofuran-4-yl)methyl)amino)imidazo[1,2-c]pyrimidin-8-yl)-N,N,1-trimethyl-1H-pyrazole-3-carboxamide]", "values": [{"measurement": "pIC50", "setting": "[1]", "result": "≥ 7.00"}, {"measurement": "pIC50", "setting": "Karpas 422 cells", "result": "≥ 6.60"}, {"measurement": "pIC50", "setting": "[2]", "result": "> 7.00"}]}
{"smiles": "N#Cc1cn2c(NCc3c(F)ccc4c3CCO4)ncc(-c3ccc(C4CCN4)cc3)c2n1", "note": "(stereo not drawn) [Example 226, 8-(4-(azetidin-2-yl)phenyl)-5-(((5-fluoro-2,3-dihydrobenzofuran-4-yl)methyl)amino)imidazo[1,2-c]pyrimidine-2-carbonitrile]", "values": [{"measurement": "pIC50", "setting": "[1]", "result": "6.30 to 7.00"}, {"measurement": "pIC50", "setting": "Karpas 422 cells", "result": "≥ 6.60"}, {"measurement": "pIC50", "setting": "[2]", "result": "6.30 to 7.00"}]}
{"smiles": "Cc1cc(-c2cnc(NCc3c(F)ccc4c3CCO4)n3cc(C#N)nc23)ccc1CN(C)C", "note": "[Example 200, 8-(4-((dimethylamino)methyl)-3-methylphenyl)-5-(((5-fluoro-2,3-dihydrobenzofuran-4-yl)methyl)amino)imidazo[1,2-c]pyrimidine-2-carbonitrile]", "values": [{"measurement": "pIC50", "setting": "[1]", "result": "6.30 to 7.00"}, {"measurement": "pIC50", "setting": "Karpas 422 cells", "result": "≥ 6.60"}, {"measurement": "pIC50", "setting": "[2]", "result": "6.30 to 7.00"}]}
{"smiles": "Cc1ncccc1-c1cnc(NCc2c(F)ccc3occc23)n2cc(C(=O)O)nc12", "note": "[Example 3, 5-(((5-fluorobenzofuran-4-yl)methyl)amino)-8-(2-methylpyridin-3-yl)imidazo[1,2-c]pyrimidine-2-carboxylic acid]", "values": [{"measurement": "pIC50", "setting": "[1]", "result": "< 6.30"}, {"measurement": "pIC50", "setting": "Karpas 422 cells", "result": "< 6.30"}, {"measurement": "pIC50", "setting": "[2]", "result": "6.30 to 7.00"}]}
{"smiles": "CC(O)Cn1cc(-c2cnc(NCc3c(F)ccc4c3CCO4)n3cc(C#N)nc23)cn1", "note": "(stereo not drawn) [Example 179, 5-(((5-fluoro-2,3-dihydrobenzofuran-4-yl)methyl)amino)-8-(1-(2-hydroxypropyl)-1H-pyrazol-4-yl)imidazo[1,2-c]pyrimidine-2-carbonitrile]", "values": [{"measurement": "pIC50", "setting": "[1]", "result": "6.30 to 7.00"}, {"measurement": "pIC50", "setting": "Karpas 422 cells", "result": "< 6.30"}, {"measurement": "pIC50", "setting": "[2]", "result": "> 7.00"}]}
{"smiles": "COCCOc1ccc(-c2cnc(NCc3c(F)ccc4c3CCO4)n3cc(C#N)nc23)cc1", "note": "[Example 161, 5-(((5-fluoro-2,3-dihydrobenzofuran-4-yl)methyl)amino)-8-(4-(2-methoxyethoxy)phenyl)imidazo[1,2-c]pyrimidine-2-carbonitrile]", "values": [{"measurement": "pIC50", "setting": "[1]", "result": "6.30 to 7.00"}, {"measurement": "pIC50", "setting": "Karpas 422 cells", "result": "≥ 6.60"}, {"measurement": "pIC50", "setting": "[2]", "result": "> 7.00"}]}
{"smiles": "Cc1nc(-c2cnc(NCc3c(F)ccc4c3CCO4)n3cc(C#N)nc23)c(C)s1", "note": "[Example 145, 8-(2,5-dimethylthiazol-4-yl)-5-(((5-fluoro-2,3-dihydrobenzofuran-4-yl)methyl)amino)imidazo[1,2-c]pyrimidine-2-carbonitrile]", "values": [{"measurement": "pIC50", "setting": "[1]", "result": "6.30 to 7.00"}, {"measurement": "pIC50", "setting": "Karpas 422 cells", "result": "≥ 6.60"}, {"measurement": "pIC50", "setting": "[2]", "result": "6.30 to 7.00"}]}
{"smiles": "COC(=O)c1ccc(-c2cnc(NCc3c(F)ccc4c3CCO4)n3cc(C#N)nc23)cc1", "note": "[Example 167, methyl 4-(2-cyano-5-(((5-fluoro-2,3-dihydrobenzofuran-4-yl)methyl)amino)imidazo[1,2-c]pyrimidin-8-yl)benzoate]", "values": [{"measurement": "pIC50", "setting": "[1]", "result": "< 6.30"}, {"measurement": "pIC50", "setting": "Karpas 422 cells", "result": "≥ 6.60"}, {"measurement": "pIC50", "setting": "[2]", "result": "6.30 to 7.00"}]}
{"smiles": "Cc1cc(-c2cnc(NCc3c(F)ccc4c3CCO4)n3cc(C#N)nc23)n(C)n1", "note": "[Example 86, 8-(1,3-dimethyl-1H-pyrazol-5-yl)-5-(((5-fluoro-2,3-dihydrobenzofuran-4-yl)methyl)amino)imidazo[1,2-c]pyrimidine-2-carbonitrile]", "values": [{"measurement": "pIC50", "setting": "[1]", "result": "≥ 7.00"}, {"measurement": "pIC50", "setting": "Karpas 422 cells", "result": "≥ 6.60"}, {"measurement": "pIC50", "setting": "[2]", "result": "> 7.00"}]}
{"smiles": "CNCc1ccc(-c2cnc(NCc3c(F)ccc4c3CCO4)n3cc(C#N)nc23)cc1F", "note": "[Example 197, 5-(((5-fluoro-2,3-dihydrobenzofuran-4-yl)methyl)amino)-8-(3-fluoro-4-((methylamino)methyl)phenyl)imidazo[1,2-c]pyrimidine-2-carbonitrile]", "values": [{"measurement": "pIC50", "setting": "[1]", "result": "6.30 to 7.00"}, {"measurement": "pIC50", "setting": "Karpas 422 cells", "result": "≥ 6.60"}, {"measurement": "pIC50", "setting": "[2]", "result": "> 7.00"}]}
{"smiles": "N#Cc1cn2c(NCc3c(F)ccc4c3CCO4)ncc(-c3ccc(-c4nnn[nH]4)cc3)c2n1", "note": "[Example 190, 8-(4-(1H-tetrazol-5-yl)phenyl)-5-(((5-fluoro-2,3-dihydrobenzofuran-4-yl)methyl)amino)imidazo[1,2-c]pyrimidine-2-carbonitrile]", "values": [{"measurement": "pIC50", "setting": "[1]", "result": "< 6.30"}, {"measurement": "pIC50", "setting": "Karpas 422 cells", "result": "< 6.30"}, {"measurement": "pIC50", "setting": "[2]", "result": "> 7.00"}]}
{"smiles": "CN(C)CCc1ccc(-c2cnc(NCc3c(F)ccc4c3CCO4)n3cc(C#N)nc23)cc1", "note": "[Example 163, 8-(4-(2-(dimethylamino)ethyl)phenyl)-5-(((5-fluoro-2,3-dihydrobenzofuran-4-yl)methyl)amino)imidazo[1,2-c]pyrimidine-2-carbonitrile]", "values": [{"measurement": "pIC50", "setting": "[1]", "result": "6.30 to 7.00"}, {"measurement": "pIC50", "setting": "Karpas 422 cells", "result": "≥ 6.60"}, {"measurement": "pIC50", "setting": "[2]", "result": "> 7.00"}]}
{"smiles": "N#Cc1cn2c(NCc3c(F)ccc4c3CCO4)ncc(-c3cnn(CC4CCOC4)c3)c2n1", "note": "(stereo not drawn) [compound 154]", "values": [{"measurement": "pIC50", "setting": "[1]", "result": "6.30 to 7.00"}, {"measurement": "pIC50", "setting": "Karpas 422 cells", "result": "6.30 to 6.60"}, {"measurement": "pIC50", "setting": "[2]", "result": "6.30 to 7.00"}]}
{"smiles": "Cn1cccc(-c2cnc(NCc3c(F)ccc4c3CCO4)n3cc(C#N)nc23)c1=O", "note": "[Example 156, 5-(((5-fluoro-2,3-dihydrobenzofuran-4-yl)methyl)amino)-8-(1-methyl-2-oxo-1,2-dihydropyridin-3-yl)imidazo[1,2-c]pyrimidine-2-carbonitrile]", "values": [{"measurement": "pIC50", "setting": "[1]", "result": "< 6.30"}, {"measurement": "pIC50", "setting": "Karpas 422 cells", "result": "< 6.30"}, {"measurement": "pIC50", "setting": "[2]", "result": "6.30 to 7.00"}]}
{"smiles": "Cc1cc(S(=O)(=O)N(C)C)ccc1-c1cnc(NCc2c(F)ccc3c2CCO3)n2cc(C#N)nc12", "note": "[Example 48, 4-(2-cyano-5-(((5-fluoro-2,3-dihydrobenzofuran-4-yl)methyl)amino)imidazo[1,2-c]pyrimidin-8-yl)-N,N,3-trimethylbenzenesulfonamide]", "values": [{"measurement": "pIC50", "setting": "[1]", "result": "6.30 to 7.00"}, {"measurement": "pIC50", "setting": "Karpas 422 cells", "result": "≥ 6.60"}, {"measurement": "pIC50", "setting": "[2]", "result": "> 7.00"}]}
